In assay [1] the test system is Rattus norvegicus. Kind of assay: In vivo inhibition of apomorphine-mediated stereotypy in rats administered subcutaneously at 10 mg/kg expressed as percent inhibition. Type of assay: functional. As to conditions: sc, route subcutaneous.
Assay [2] concerns the target Serotonin 2 (5-HT2) receptor (Rattus norvegicus, UniProt P30994+P08909+P14842).
Description: In vitro binding affinity against rat 5-hydroxytryptamine 2 receptor.
The target in assay [3] is Muscarinic acetylcholine receptor.
Description: In vitro binding affinity against Muscarinic acetylcholine receptors in rat brain.
The next assay concerns the target D(1A) dopamine receptor (Rattus norvegicus, UniProt P18901). Kind of assay: biochemical.
For assay [4], the species on record is Rattus norvegicus. Put plainly: animal or person. As to conditions: sc, read-out: Inhibition.
In assay [5] the test system is Rattus norvegicus. Kind of assay: In vivo inhibition of apomorphine-mediated stereotypy in rats administered subcutaneously at 20 mg/kg expressed as ED50 (mg/kg); Inactive. The arrangement: dose 20 mg/kg. Format: functional, organism-based.
Assay [6] concerns Rattus norvegicus. Kind of assay: In vivo inhibition of apomorphine-mediated stereotypy in rats administered subcutaneously at 20 mg/kg expressed as percent inhibition. The note with it: sc, route subcutaneous. Format: functional.
The test system of assay [7] is Rattus norvegicus. Kind of assay: In vivo inhibition of apomorphine-mediated stereotypy in rats administered subcutaneously at 20 mg/kg expressed as ED50 (mg/kg). Format: functional. As to conditions: sc, route subcutaneous.
For assay [8], the species on record is Rattus norvegicus. Put plainly: animal or person. As to conditions: sc, read-out: Inhibition. The source holds these as a separate data set.
The species named for assay [9] is Rattus norvegicus. Kind of assay: animal or person. As to conditions: sc.
Assay [10] deals with Rattus norvegicus. Put plainly: In vivo inhibition of apomorphine-mediated stereotypy in rats administered subcutaneously at 20 mg/kg expressed as ED50 (mg/kg); Onactive. Type of assay: functional, organism-based. The arrangement: dose 20 mg/kg.

Drawing on ChEMBL document CHEMBL1126743, “New pyridobenzodiazepine derivatives as potential antipsychotics: synthesis and neurochemical study” (J Med Chem, 1993), this text covers inhibition in vivo, Ki and ED50 for 19 molecules.

Activity calls are given as the source filed them. The rule behind the calls is not given here.

D(1A) dopamine receptor, sequence (P18901 whole entry): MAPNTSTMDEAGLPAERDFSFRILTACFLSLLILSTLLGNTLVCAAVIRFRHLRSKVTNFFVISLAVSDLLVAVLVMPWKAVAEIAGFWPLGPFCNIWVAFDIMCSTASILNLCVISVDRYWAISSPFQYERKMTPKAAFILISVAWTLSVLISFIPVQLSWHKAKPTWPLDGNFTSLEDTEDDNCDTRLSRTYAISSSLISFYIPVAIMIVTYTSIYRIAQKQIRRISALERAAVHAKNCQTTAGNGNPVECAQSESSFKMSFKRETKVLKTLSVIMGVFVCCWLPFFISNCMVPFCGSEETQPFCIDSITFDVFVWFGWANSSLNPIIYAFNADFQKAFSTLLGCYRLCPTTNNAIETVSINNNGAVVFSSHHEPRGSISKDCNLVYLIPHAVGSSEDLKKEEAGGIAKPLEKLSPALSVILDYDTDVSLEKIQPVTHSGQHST
Description for D(1A) dopamine receptor: In vitro binding affinity against Dopamine receptor D1 in rat striatal tissue

In general, Ki refers to a measure of affinity in units of concentration, obtained from inhibition or displacement. In the assay with Rattus norvegicus [1], `CN1CCN(C2=Nc3cccnc3Nc3ccc(Cl)cc32)CC1` yielded an inhibition in vivo at 10 mg/kg of 75%. Moreover, the Ki worked out at 6.2 nM in assay [2], 65 nM in assay [3] and 2140 nM on D(1A) dopamine receptor.
Consider `CN1CCN(C2=Nc3cccnc3Nc3cc(Cl)ccc32)CC1`, for which the Ki in [2] turned out to be 48 nM; in [3], 366 nM; on D(1A) dopamine receptor, 214 nM. In addition, in the assay filed under Rattus norvegicus [4], the inhibition in vivo at 20 mg/kg was found to be 70%.
With `CN1CCN(C2=Nc3ccccc3N(C=O)c3ncccc32)CC1`, the Ki was 7120 nM in assay [2], 3415 nM in assay [3] and 30200 nM at D(1A) dopamine receptor. The inhibition in vivo at 20 mg/kg in the assay listed under Rattus norvegicus [4] is 0%.
Take `CN1CCN(C2=Nc3cccnc3N(C)c3ccccc32)CC1`: the figures for the Ki (in [2]; in [3]; on D(1A) dopamine receptor) were 2900 nM, 175 nM and 6020 nM, respectively. For the same molecule, the inhibition in vivo at 20 mg/kg in the assay filed under Rattus norvegicus [4] came out at 0%.
By ED50 is commonly meant the midpoint of the dose-response relation. `CN1CCN(C2=Nc3cc(Cl)ccc3Nc3ccccc32)CC1` [CLOZAPINE]: the ED50 entry with Rattus norvegicus [5] is “inactive”. Besides, in the assay filed under Rattus norvegicus [4], the inhibition in vivo at 20 mg/kg worked out at 0%.
In the case of `Cc1cnc2c(c1)N=C(N1CCN(C)CC1)c1ccccc1N2`, the results for the Ki (in [2]; in assay [3]; at D(1A) dopamine receptor) were 103 nM, 523 nM and 1140 nM, respectively.
In the case of `CN1CCN(C2=Nc3cccnc3Nc3ccc(F)cc32)CC1`, the inhibition in vivo at 20 mg/kg with Rattus norvegicus [6] was 55%. The Ki is 124 nM in assay [2], 415 nM in assay [3] and 677 nM on D(1A) dopamine receptor.
For the molecule `Cc1ccc2c(c1)C(N1CCN(C)CC1)=Nc1cccnc1N2`, the Ki in assay [2] is 94 nM; in assay [3], 48 nM; at D(1A) dopamine receptor it was 398 nM. For the same molecule, in the assay filed under Rattus norvegicus [4], the inhibition in vivo at 20 mg/kg was 75%.
`O=C(CCCN1CCC(O)(c2ccc(Cl)cc2)CC1)c1ccc(F)cc1` [HALOPERIDOL] had an ED50 with Rattus norvegicus [7] of 0.14 mg/kg. In addition, in the assay listed under Rattus norvegicus [8], the inhibition in vivo at 0.6 mg/kg worked out at 100%.
`CN1CCN(C2=Nc3cccnc3N(C=O)c3ccccc32)CC1`: the Ki in assay [2] came to 1870 nM; in [3], 311 nM; on D(1A) dopamine receptor, 47900 nM. Further, the inhibition in vivo at 20 mg/kg in the assay listed under Rattus norvegicus [4] was 0%.
In the same order, the values of `CN1CCN(C2=Nc3cccnc3Nc3ccccc32)CC1` are 124 nM, 665 nM, 2400 nM and 0%.
Take `CN1CCN(C2=Nc3ccccc3Sc3ccc(Cl)cc32)CC1` [CLOTHIAPINE]: the Ki in assay [2] is 0.6 nM; in assay [3], 136 nM; on D(1A) dopamine receptor, 14 nM. The same molecule registered an ED50 in the assay listed under Rattus norvegicus [9] of 0.72 mg/kg. The inhibition in vivo at 20 mg/kg in the assay filed under Rattus norvegicus [4] came to 100%.
Take `CN1CCN(C2=Nc3ccccc3N(C=O)c3ccncc32)CC1`: the results for the Ki (in assay [2]; in assay [3]; on D(1A) dopamine receptor) were 2053 nM, 3450 nM and 3020 nM, respectively. Further, the inhibition in vivo at 20 mg/kg in the assay filed under Rattus norvegicus [4] worked out at 0%.
For `CN1CCN(C2=Nc3cnccc3Nc3ccccc32)CC1`, the Ki in assay [2] stood at 837 nM; in [3], 430 nM; on D(1A) dopamine receptor, 13500 nM.
Take `CN1CCN(C2=Nc3ccccc3Nc3ncccc32)CC1`: the results for the Ki (in [2]; in assay [3]; on D(1A) dopamine receptor) were 103 nM, 303 nM and 726 nM, respectively. For the same molecule, the inhibition in vivo at 20 mg/kg in the assay listed under Rattus norvegicus [4] worked out at 0%.
Turning to `CN1CCN(C2=Nc3cc(Cl)ccc3Sc3ccccc32)CC1` [ISOCLOTHIAPINE], in the assay on Rattus norvegicus [10], the ED50 result was “inactive”. The Ki in assay [2] was 4.1 nM; in [3], 5.6 nM; at D(1A) dopamine receptor, 240 nM.
For `CN1CCN(C2=Nc3cc(F)ccc3Cc3ccccc32)CC1` [FLUPERLAPINE], the Ki is 3.8 nM in [2], 25 nM in assay [3] and 141 nM at D(1A) dopamine receptor.
As to `CN1CCN(C2=Nc3ccccc3Nc3ccc(Cl)cc32)CC1` [ISOCLOZAPINE], the Ki in assay [3] is 21 nM; on D(1A) dopamine receptor, 28 nM. In the assay filed under Rattus norvegicus [9], the ED50 was found to be 1.7 mg/kg.
For the molecule `CN1CCN(C2=Nc3ccccc3Nc3ccncc32)CC1`, the values for the Ki (in assay [2]; in assay [3]; at D(1A) dopamine receptor) were 29 nM, 3260 nM and 302 nM, respectively. Further, the inhibition in vivo at 20 mg/kg in the assay filed under Rattus norvegicus [4] came to 45%.
